According to PubChem BioAssay AID720563 (Broad Institute, 2013):
Several values for one entry are separate records, joined by “and”; a condition that tells them apart may be missing. Equal values may be shown once. Activity calls are given as the source filed them.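 How the source made its calls: active means compounds whose fitted AC50 lies at or below twice their top valid test dose; inconclusive means flat curve between -70 and -30 percent, or unreliable curve fit; inactive means the rest.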

molecular target: Transforming acidic coiled-coil-containing protein 3 (Homo sapiens) (UniProt Q9Y6A5); experiment: potency against ARNT PAS-B/TACC3 association – biochemical, AlphaScreen, dry powder, dose response (AID 720563); conditions: AlphaScreen His-ARNT PAS-B/GST-TACC3 binding, luminescence

With Cc1ccc(C(=O)Nc2nc(-c3ccccc3)cs2)o1 the AC50 was > 136000 nM (inactive).
For c1ccc(-c2nc(-c3ccncc3)n[nH]2)nc1, the AC50 was 368 nM and 190 nM.
With CC(C)Cc1nnc(NC(=O)c2cccc(S(=O)(=O)N3CCOCC3)c2)s1 the AC50 was > 136000 nM (inactive).

CC1CCN(S(=O)(=O)c2ccc(C(=O)Nc3nnc(-c4cccs4)o3)cc2)CC1 and CC1CCN(S(=O)(=O)c2ccc(C(=O)Nc3nnc(-c4ccco4)o3)cc2)CC1 are within 1.5-fold of each other in AC50: 49800 nM for the first, 34100 nM for the second.

Going from CC(C)C(=O)NC(c1ccco1)c1cc(Cl)c2cccnc2c1O (stereo unspecified) to CC(C)C(=O)NC(c1ccco1)c1ccc2cccnc2c1O (stereo unspecified), the AC50 falls from 5100 nM to 452 nM (11-fold).

O=C(CSc1n[nH]c(-c2ccccn2)n1)Nc1ccc(Cl)cc1 and O=C(CSc1ccc(-c2ccccn2)nn1)Nc1ccccc1 are within 1.5-fold of each other in AC50: 884 nM for the first, 869 nM for the second.

O=C(Cc1ccccc1)NC(c1ccco1)c1ccc2cccnc2c1O (stereo unspecified) and CCCCC(=O)NC(c1ccco1)c1ccc2cccnc2c1O (stereo unspecified) are within 1.5-fold of each other in AC50: 1490 nM for the first, 1390 nM for the second.

First: CC(C)CC(=O)NC(c1cccs1)c1ccc2cccnc2c1O (stereo unspecified)
Second: O=C(CSc1ccc(-c2ccccn2)nn1)Nc1nccs1
The AC50 of the first is 3-fold higher: 797 nM for the first, 262 nM for the second.

O=C(CSc1ccc(-c2ccccn2)nn1)N1CCCC1 and O=C(CSc1ccc(-c2ccccn2)nn1)NC1CCCCC1 are within 1.5-fold of each other in AC50: 1680 nM for the first, 1630 nM for the second.

Compared with CC1CCN(S(=O)(=O)c2ccc(C(=O)Nc3nnc(C4=COCCO4)o3)cc2)CC1, CC1CCCN(S(=O)(=O)c2ccc(C(=O)Nc3nnc(C4=COCCO4)o3)cc2)C1 (stereo unspecified) is 1.6-fold lower in AC50: 17600 nM for the first, 11200 nM for the second.

CC1CCN(S(=O)(=O)c2ccc(C(=O)Nc3nnc(C4CC4)o3)cc2)CC1 and CC1CCN(S(=O)(=O)c2ccc(C(=O)Nc3nnc(-c4ccno4)o3)cc2)CC1 are within 1.5-fold of each other in AC50: 16700 nM for the first, 11400 nM for the second.

First: O=C(Nc1nnc(-c2ccc(F)cc2)o1)c1ccc(S(=O)(=O)N2CCCCC2)cc1
Second: CSc1ccc(-c2nnc(NC(=O)c3ccc(S(=O)(=O)N4CCC(C)CC4)cc3)o2)cc1
The AC50 of the first is 4-fold higher: 23000 nM for the first, 5810 nM for the second.

Compared with CCn1nc(-c2cccnc2)nc2c(=O)n(C)c(=O)nc1-2, Cc1c(C(=O)N(C)C)sc2nc(-c3ccccn3)[nH]c(=O)c12 is 22-fold higher in AC50: 78.4 nM for the first, 1750 nM for the second.

First: Cc1ccc(C(=O)Nc2nc(-c3ccccn3)cs2)cc1S(=O)(=O)N1CCOCC1
Second: O=C(Nc1nc(-c2ccccn2)cs1)c1ccc(S(=O)(=O)N2CCOCC2)cc1
The AC50 of the first is 3.2-fold higher: 1110 nM for the first, 342 nM for the second.

First: COC(=O)Cc1cc(=O)n(-c2nc3ccccc3[nH]2)[nH]1
Second: CCc1cc2c(=O)[nH]c(-c3ccccn3)nc2s1
The AC50 of the first is 1.5-fold higher: 1910 nM for the first, 1240 nM for the second.

Compared with O=C(Nc1nc(-c2ccncc2)cs1)c1cccc(S(=O)(=O)N2CCOCC2)c1, CC1CCN(S(=O)(=O)c2ccc(C(=O)Nc3nnc(-c4ccccn4)o3)cc2)CC1 is 1.7-fold lower in AC50: 65900 nM for the first, 39600 nM for the second.

O=C(Nc1nc(-c2ccccn2)cs1)c1ccco1 and Cc1ccc(C(=O)Nc2nc(-c3ccccn3)cs2)o1 are within 1.5-fold of each other in AC50: 820 nM for the first, 806 nM for the second.

Cc1nnc(NC(=O)c2ccc(S(=O)(=O)N3CCCCC3)cc2)o1 and O=C(Nc1nnc(C2=COCCO2)o1)c1ccc(S(=O)(=O)N2CCCCC2)cc1 are within 1.5-fold of each other in AC50: 14300 nM for the first, 19100 nM for the second.

Going from CC1CC(C)CN(S(=O)(=O)c2ccc(C(=O)Nc3nnc(C4=COCCO4)o3)cc2)C1 (stereo unspecified) to CC1CCN(S(=O)(=O)c2ccc(C(=O)Nc3nnc(-c4ccccc4)o3)cc2)CC1, the AC50 falls from 35600 nM to 20400 nM (1.7-fold).

Cc1cccc(NC(=O)CSc2ccc(-c3ccccn3)nn2)c1C and COC(=O)c1ccc(NC(=O)CSc2ccc(-c3ccccn3)nn2)cc1 are within 1.5-fold of each other in AC50: 819 nM for the first, 630 nM for the second.

First: Nc1nc(-c2ccccn2)nc(N)c1Cc1ccc(Cl)cc1Cl
Second: COc1ccc(-c2nnc(NC(=O)c3ccc(S(=O)(=O)N4CCC(C)CC4)cc3)o2)cc1
The AC50 of the first is 27-fold lower: 649 nM for the first, 17800 nM for the second.

same assay, conditions: AlphaScreen His-ARNT PAS-B/GST-TACC3 binding, luminescence; at 68 µM (top of the series)

FC(F)(F)c1cc(-c2nn[nH]n2)cc(C(F)(F)F)c1 was tested, and the “activity change, negative = inhibition” value was “inactive”.
For Cc1ccc(S(=O)(=O)CCc2nnc(NC(=O)c3ccccc3)s2)cc1, the “activity change, negative = inhibition” value was “inactive”.
